# Results from US20120003270A1, “6-SUBSTITUTED ISOFLAVONOID COMPOUNDS AND USES THEREOF” (priority 2008, published 2012).
# Experiments:
# [1] = tested on: adjuvant-induced arthritis; assay: Rat adjuvant-induced arthritis model; format: in vivo
# Method: Male Dark Agouti (DA) strain (DA.CD45.1) rats were fed with either compound (1)-treated feed or placebo-treated feed for seven days prior to the injection of Complete Freund's adjuvant (0.1 ml) into the base of the tail. The treated feeds were continued throughout the experiment. Arthritis, which became evident at Day 8 was subjectively scored each day by an operator blinded to the identity of treatments and using a scoring system as follows: • 0 (no evidence of arthritis); • 1 (1 or 2 red, swollen joints but no other swelling); • 2 (carpus or tarsus swollen or more than 2 small joints swollen); • 3 (some red swollen joints and carpus or tarsus swollen, but not global swelling); • 4 (severe global swelling of the entire paw). Therefore, the disease score for individual rats ranged between 0 and 16. Rats (n=8 per group) were killed on Day 12. Data were analysed using a two way ANOVA (Prism 4 for Windows, GraphPad Software Inc).
# THP-1 cells = assay: Cytotoxicity in the THP-1 NFκB assay; format: cell-based, human; conditions: at active concentrations
# aortic ring = assay: Rat aortic ring assay (contraction to noradrenaline); conditions: 1 μg/ml, p=0.045, read-out: Inhibition of the contractile response (logEC50) to noradrenaline compared with vehicle alone
# Method: Male Sprague-Dawley rats (250±50 g) were euthanased with 80% CO2 and 20% O2. The thoracic aorta was excised and quickly mounted in organ-baths as described (Chin-Dusting et al. 2001). Full concentration-contractile curves were obtained to noradrenaline (0.1 nM-10 mM) with and without test compounds delivered at a concentration of 1 μg/ml. Experiments were repeated in n=5 different rings from 5 different animals. Only one compound at any one concentration was tested on any one ring from any one animal. Sigmoidal dose response curves were fitted for the data and the logEC50 calculated (Prism 4, GraphPad Software). The difference in these values between the presence and absence of test compound was calculated using a two-tailed paired t test. The effects of β-oestrodiol and vehicle alone were examined as a positive and negative control respectively.
Compound,"Joint score (mean ± SD) ([1]; Day 7, treated feed, score 0-16)","Joint score (mean ± SD) ([1]; Day 8, placebo 0.38 ± 0.52)","Joint score (mean ± SD) ([1]; Day 9, placebo 4.75 ± 1.28)","Joint score (mean ± SD) ([1]; Day 10, placebo 7.75 ± 1.39)","Joint score (mean ± SD) ([1]; Day 11, placebo 11.75 ± 1.04)","Joint score (mean ± SD) ([1]; Day 12, placebo 14.13 ± 1.46)",Arthritis score compared with placebo feed (in words) ([1]; two way ANOVA),Cytotoxicity (THP-1 cells),inhibition at 1 µg/mL (aortic ring) [%],melting point
CN(C)Cc1cc2c(cc1O)OCC(c1ccc(O)cc1)=C2 [Compound (1)],0,0.5 ± 0.53,3.25 ± 1.58,6.25 ± 1.49,9.25 ± 1.28,12.75 ± 2.92,statistically significant (p=0.008) reduction in arthritis score,absence of cytotoxicity,23,–
O=C(O)C1CCCN1Cc1cc2c(cc1O)OCC(c1ccc(O)cc1)=C2 (stereo not shown) [Compound (3)],–,–,–,–,–,–,–,–,–,240 °C (dec.)
